≈ marks a conversion by molar mass, not a printed value. Like-named read-outs stand apart in the source and are kept apart here.
Assay: Equilibrium solubility of 4-iodo-3-nitrobenzamide, overnight at 25° C., measured by HPLC
Type: physicochemical
Conditions: for solubility: thermodynamic from solid, read-out: Solubility
Protocol: Excess 4-iodo-3-nitrobenzamide (“BA”) was equilibrated overnight (>16 hr) at 25° C. in purified water, 0.01M HCl (pH2), 0.01M NaOH ([…]), and 0.9% NaCl. Following dilution, the solubility of the drug was measured by HPLC.
Excess 4-iodo-3-nitrobenzamide was equilibrated overnight (>16 hr) at 25° C. in solutions of purified water containing various concentrations of cyclodextrins including hydroxypropyl-β-cyclodextrin (Kleptose® from Roquette) (HPBCD), sulfobutyl ether-β-cyclodextrin (Captisol® from Cyclex) (SBEBCD), and Hyroxypropyl-γ-cyclodextrin (Cavamax W8® from Wacker) (HPGCD). Following dilution, the solubility of the drug was measured by HPLC.
Excess 4-iodo-3-nitrobenzamide was equilibrated overnight (>16 hr) at 25° C. in purified water containing various concentrations of the surfactants: polyethylene sorbitan monooleate (Polysorbate 80), polyoxyethylene sorbitan monolaurate (Polysorbate 20), Cremophor EL (BASF), Cremophor RH40 (BASF), Poloxamer 118, and Solutol HS-15 (BASF). Following dilution, the solubility of the drug was measured by HPLC.
Excess 4-iodo-3-nitrobenzamide was equilibrated overnight (>16 hr) at 25° C. in solutions of purified water containing various co-solvents including ethanol, glycofurol, glycerin formal, benzyl alcohol, N,N, dimethylacetamide (DMA), polyethylene glycol (PEG) 400, and propylene glycol. Following dilution, the solubility of the drug was measured by HPLC.
Excess 4-iodo-3-nitrobenzamide was equilibrated overnight (>16 hr) at 25° C. in solutions in purified water containing mixtures of solubilizers. Following dilution, the solubility of the drug was measured by HPLC.

A solubility (0.01 M HCl, 25 °C, pH 2, simulated gastric fluid, 0.01 M HCl (pH 2), 25° C.) of 179 µg/mL (≈ 0.613 mM), a solubility (0.01 M NaOH, 25 °C, pH 13, aqueous buffer, 0.01M NaOH (pH 13), 25° C.) of 181 µg/mL (≈ 0.62 mM) and a solubility (0.9% NaCl, 25 °C, saline or isotonic, 0.9% NaCl, 25° C.) of 164 µg/mL (≈ 0.562 mM) were found for `NC(=O)c1ccc(I)c([N+](=O)[O-])c1` [BA, 4-iodo-3-nitrobenzamide] in this work. The solubility (5% DMA (N,N-dimethylacetamide) in purified water, 25 °C, aqueous with cosolvent or surfactant or cyclodextrin, DMA 5%, 25° C.) was 1390 µg/mL (≈ 4.76 mM), the Enhancement (5% DMA/5% EtOH/40% PEG 400) was 44.0 and the solubility (5% DMA/5% EtOH/40% PEG 400 in purified water, 25 °C, aqueous with cosolvent or surfactant or cyclodextrin, 5% DMA/5% EtOH/40% PEG 400, 25° C.) was 8010 µg/mL (≈ 27.4 mM). It also gave an Enhancement (5% DMA/25% Solutol HS-15) of 45.7, a solubility (5% DMA/25% Solutol HS-15 in purified water, 25 °C, aqueous with cosolvent or surfactant or cyclodextrin, 5% DMA/25% Solutol HS-15, 25° C.) of 8320 µg/mL (≈ 28.5 mM) and an Enhancement (5% DMA/40% PEG 400) of 33.2. The solubility (5% DMA/40% PEG 400 in purified water, 25 °C, aqueous with cosolvent or surfactant or cyclodextrin, 5% DMA/40% PEG 400, 25° C.) was 6050 µg/mL (≈ 20.7 mM), the Enhancement (5% Polysorbate 20/5% ETOH) was 12.1 and the solubility (5% Polysorbate 20/5% ethanol in purified water, 25 °C, aqueous with cosolvent or surfactant or cyclodextrin, 5% Polysorbate 20/5% ETOH, 25° C.) was 2210 µg/mL (≈ 7.57 mM). It also gave an Enhancement (5% Polysorbate 20/5% glycofurol) of 11.0, a solubility (5% Polysorbate 20/5% glycofurol in purified water, 25 °C, aqueous with cosolvent or surfactant or cyclodextrin, 5% Polysorbate 20/5% glycofurol, 25° C.) of 2000 µg/mL (≈ 6.85 mM) and an Enhancement (5% Polysorbate 80/5% ETOH) of 12.3. The solubility (5% Polysorbate 80/5% ethanol in purified water, 25 °C, aqueous with cosolvent or surfactant or cyclodextrin, 5% Polysorbate 80/5% ETOH, 25° C.) was 2230 µg/mL (≈ 7.64 mM), the Enhancement (5% Polysorbate 80/5% glycofurol) was 13.1 and the solubility (5% Polysorbate 80/5% glycofurol in purified water, 25 °C, aqueous with cosolvent or surfactant or cyclodextrin, 5% Polysorbate 80/5% glycofurol, 25° C.) was 2390 µg/mL (≈ 8.18 mM). It also gave an Enhancement (5% Polysorbate 80/10% EtOH/40% PEG 400) of 6.7, a solubility (5% glucose (5GW), 25 °C, saline or isotonic, 5% Glucose (5GW), 25° C.) of 173 µg/mL (≈ 0.592 mM) and a solubility (10% Cremophor EL in purified water, 25 °C, aqueous with cosolvent or surfactant or cyclodextrin, Cremophor EL 10%, 25° C.) of 3500 µg/mL (≈ 12 mM). For the same molecule, the solubility (10% Cremophor RH40 in purified water, 25 °C, aqueous with cosolvent or surfactant or cyclodextrin, Cremophor RH40 10%, 25° C.) was 3370 µg/mL (≈ 11.5 mM), the Enhancement (10% EtOH/10% Polysorbate 80) was 11.5 and the Enhancement (10% EtOH/40% PEG 400) was 18.8. The Enhancement (10% EtOH/40% PEG 400,/5% Benzyl Alcohol) was 17.1, the solubility (10% HPBCD in purified water, 25 °C, aqueous with cosolvent or surfactant or cyclodextrin, HPBCD 10% in purified water, 25° C.) was 4860 µg/mL (≈ 16.6 mM) and the solubility (10% Poloxamer 118 in purified water, 25 °C, aqueous with cosolvent or surfactant or cyclodextrin, Poloxamer 118 10%, 25° C.) was 430 µg/mL (≈ 1.47 mM). The solubility (10% Polysorbate 20 in purified water, 25 °C, aqueous with cosolvent or surfactant or cyclodextrin, Polysorbate 20 10%, 25° C.) was 3660 µg/mL (≈ 12.5 mM), the solubility (10% Polysorbate 80 in purified water, 25 °C, aqueous with cosolvent or surfactant or cyclodextrin, Polysorbate 80 10%, 25° C.) was 3120 µg/mL (≈ 10.7 mM) and the Enhancement (10% glycofurol, 40% PEG 400) was 33.6. For the same molecule, the solubility (20% HPBCD in purified water, 25 °C, aqueous with cosolvent or surfactant or cyclodextrin, HPBCD 20% in purified water, 25° C.) was 9960 µg/mL (≈ 34.1 mM), the solubility (25% HPBCD in purified water, 25 °C, aqueous with cosolvent or surfactant or cyclodextrin, HPBCD 25% in purified water, 25° C.) was 11500 µg/mL (≈ 39.3 mM) and the solubility (25% HPGCD in purified water, 25 °C, aqueous with cosolvent or surfactant or cyclodextrin, HPGCD 25% in purified water, 25° C.) was 272 µg/mL (≈ 0.931 mM). It also gave a solubility (25% SBEBCD in purified water, 25 °C, aqueous with cosolvent or surfactant or cyclodextrin, SBEBCD 25% in purified water, 25° C.) of 11000 µg/mL (≈ 37.8 mM), a solubility (25% Solutol HS 15 in purified water, 25 °C, aqueous with cosolvent or surfactant or cyclodextrin, Solutol HS 15 25%, 25° C.) of 6550 µg/mL (≈ 22.4 mM) and a solubility (30% Solutol HS 15 in purified water, 25 °C, aqueous with cosolvent or surfactant or cyclodextrin, Solutol HS 15 30%, 25° C.) of 7460 µg/mL (≈ 25.5 mM). For the same molecule, the solubility (40% HPBCD in purified water, 25 °C, aqueous with cosolvent or surfactant or cyclodextrin, HPBCD 40% in purified water, 25° C.) was 12800 µg/mL (≈ 43.7 mM), the solubility (50% PEG 400 in purified water, 25 °C, aqueous with cosolvent or surfactant or cyclodextrin, PEG 400 50%, 25° C.) was 7660 µg/mL (≈ 26.2 mM) and the Enhancement (50% Polysorbate 20/50% EtOH) was 89.6. The solubility (50% Polysorbate 20/50% EtOH, 25 °C, organic solvent or mixture, 50% Polysorbate 20/50% EtOH, 25° C.) was 16300 µg/mL (≈ 55.9 mM), the Enhancement (50% Polysorbate 80/50% EtOH) was 102.2 and the solubility (50% Polysorbate 80/50% EtOH, 25 °C, organic solvent or mixture, 50% Polysorbate 80/50% EtOH, 25° C.) was 18600 µg/mL (≈ 63.7 mM). The solubility (50% ethanol in purified water, 25 °C, aqueous with cosolvent or surfactant or cyclodextrin, Ethanol 50%, 25° C.) was 5720 µg/mL (≈ 19.6 mM), the solubility (50% glycerin formal in purified water, 25 °C, aqueous with cosolvent or surfactant or cyclodextrin, Glycerin Formal 50%, 25° C.) was 3450 µg/mL (≈ 11.8 mM) and the solubility (50% glycofurol in purified water, 25 °C, aqueous with cosolvent or surfactant or cyclodextrin, Glycofurol 50%, 25° C.) was 9850 µg/mL (≈ 33.7 mM). For the same molecule, the solubility (50% propylene glycol in purified water, 25 °C, aqueous with cosolvent or surfactant or cyclodextrin, Propylene glycol 50%, 25° C.) was 2240 µg/mL (≈ 7.67 mM), the solubility (100% DMA (N,N-dimethylacetamide), 25 °C, organic solvent or mixture, DMA 100%, 25° C.) was 71500 µg/mL (≈ 245 mM) and the solubility (100% Polysorbate 20, 25 °C, organic solvent or mixture, Polysorbate 20 100%, 25° C.) was 10800 µg/mL (≈ 37.2 mM). The solubility (100% Polysorbate 80, 25 °C, organic solvent or mixture, Polysorbate 80 100%, 25° C.) was 16900 µg/mL (≈ 57.8 mM), the solubility (100% benzyl alcohol, 25 °C, organic solvent or mixture, Benzyl alcohol 100%, 25° C.) was 15500 µg/mL (≈ 53.1 mM) and the solubility (100% ethanol, 25 °C, organic solvent or mixture, Ethanol 100%, 25° C.) was 14100 µg/mL (≈ 48.1 mM).

Source: US20100160442A1, “FORMULATIONS FOR CANCER TREATMENT” (priority 2006, published 2010)
